Consider 17 compounds from patent US9481676B2, “Azepino[4,5-B]indoles and methods of use” (Medivation Technologies, Inc., priority 2008, dated 2016).

The target in assay [1] is T1, human recombinant adrenergic α2B receptor (Homo sapiens, UniProt P18089).
T1 construct: expressed in transfected cells; host or cells: CHO-K1 cells
T1 sequence (P18089 1-450): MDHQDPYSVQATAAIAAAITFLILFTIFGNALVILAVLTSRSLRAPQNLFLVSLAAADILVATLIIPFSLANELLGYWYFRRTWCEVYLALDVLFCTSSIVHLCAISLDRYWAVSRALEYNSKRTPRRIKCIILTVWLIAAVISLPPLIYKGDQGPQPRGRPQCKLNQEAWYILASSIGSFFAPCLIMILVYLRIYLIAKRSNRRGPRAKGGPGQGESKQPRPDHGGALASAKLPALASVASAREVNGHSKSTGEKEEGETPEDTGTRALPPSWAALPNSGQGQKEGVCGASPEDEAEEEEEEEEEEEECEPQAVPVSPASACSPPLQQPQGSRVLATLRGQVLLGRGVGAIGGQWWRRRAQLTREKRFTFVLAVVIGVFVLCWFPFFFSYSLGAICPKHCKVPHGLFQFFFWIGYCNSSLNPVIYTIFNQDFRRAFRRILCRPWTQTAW
The experiment in a line: Adrenergic alpha2B radioligand binding ([3H]Rauwolscine). The settings on record: compound at 1 μM; read-out: Adrenergic (1 μM) α2B, percent inhibition of specific binding. How it is done:
To evaluate in radioligand binding assays the activity of compounds of the invention, human recombinant adrenergic α2B receptor expressed in Chinese hamster ovary (CHO-K1) cells (Uhlen S et al. Eur J. Pharmacol. 343(1):93, 1998) in a modified Tris-HCl buffer (50 mM Tris-HCl, pH 7.4, 12.5 mM MgCl2, 1 mM EDTA, 0.2% BSA) was used. Compounds of the invention were incubated with 2.5 nM [^3H]Rauwolscine for 60 min. at 25° C. Non-specific binding was estimated in the presence of 10 μM Prozosin. Receptor proteins were filtered and washed, the filters were then counted to determine [^3H]Rauwolscine specifically bound. Compounds were screened at 1 μM or lower, using 1% DMSO as vehicle. Biochemical assay results are presented as the percent inhibition of specific binding in Table 5.

Assay [2] addresses T2, human recombinant serotonin (5-Hydroxytryptamine) 5-HT2C receptor (Homo sapiens, UniProt P28335).
T2 construct: expressed in transfected cells; host or cells: CHO-K1 cells
T2 sequence (P28335 33-458): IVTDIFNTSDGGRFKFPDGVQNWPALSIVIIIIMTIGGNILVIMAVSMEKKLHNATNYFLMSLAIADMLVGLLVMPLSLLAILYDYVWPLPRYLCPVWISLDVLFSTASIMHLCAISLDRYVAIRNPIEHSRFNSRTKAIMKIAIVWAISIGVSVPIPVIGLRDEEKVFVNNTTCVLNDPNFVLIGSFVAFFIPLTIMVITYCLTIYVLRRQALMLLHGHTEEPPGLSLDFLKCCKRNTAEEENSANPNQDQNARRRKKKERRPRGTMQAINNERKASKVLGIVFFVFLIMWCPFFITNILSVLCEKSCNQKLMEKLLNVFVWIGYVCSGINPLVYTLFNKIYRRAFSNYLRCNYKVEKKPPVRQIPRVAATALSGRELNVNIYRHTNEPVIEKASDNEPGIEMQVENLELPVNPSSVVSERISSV
The experiment in a line: Serotonin 5-HT2C radioligand binding ([3H]Mesulergine). The following applies: compound at 1 μM; read-out: Serotonin (1 μM) 5-HT2C, percent inhibition of specific binding. The procedure, abridged: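 Membranes from CHO-K1 cells expressing human 5-HT2C, incubated with 1 nM [3H]mesulergine for 60 min at 25 °C in 50 mM Tris-HCl pH 7.4 with ascorbic acid and pargyline.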

Assay [3] addresses T3, human recombinant adrenergic α1D receptor (Homo sapiens, UniProt P25100).
T3 construct: expressed in transfected cells; host or cells: HEK-293 cells
T3 sequence (P25100 1-572): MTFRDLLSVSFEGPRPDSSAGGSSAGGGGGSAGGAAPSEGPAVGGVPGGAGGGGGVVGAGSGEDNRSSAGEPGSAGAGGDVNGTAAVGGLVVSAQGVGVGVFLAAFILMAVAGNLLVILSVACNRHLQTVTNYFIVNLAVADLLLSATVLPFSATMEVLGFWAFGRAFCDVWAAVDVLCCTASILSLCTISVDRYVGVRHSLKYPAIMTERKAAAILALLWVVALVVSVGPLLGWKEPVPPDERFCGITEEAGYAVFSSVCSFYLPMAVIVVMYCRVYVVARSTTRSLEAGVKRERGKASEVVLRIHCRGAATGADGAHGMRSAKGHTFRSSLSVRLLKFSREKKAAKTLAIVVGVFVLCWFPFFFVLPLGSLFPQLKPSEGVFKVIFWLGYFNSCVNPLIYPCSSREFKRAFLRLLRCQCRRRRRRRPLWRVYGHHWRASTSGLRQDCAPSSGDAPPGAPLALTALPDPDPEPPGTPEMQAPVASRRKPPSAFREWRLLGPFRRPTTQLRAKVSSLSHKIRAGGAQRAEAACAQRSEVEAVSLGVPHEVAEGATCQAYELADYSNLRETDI
The assay can be described thus: Adrenergic alpha1D radioligand binding ([3H]Prozosin). The settings on record: compound at 1 μM; read-out: Adrenergic (1 μM) α1D, percent inhibition of specific binding. The procedure:
To evaluate in radioligand binding assays the activity of compounds of the invention, human recombinant adrenergic α1D receptor expressed in human embryonic kidney (HEK-293) cells (Kenny, B. A. et al. Br. J. Pharmacol. 115(6):981, 1995) in a 50 mM Tris-HCl buffer, pH 7.4, was used. Compounds of invention were incubated with 0.6 nM [^3H]Prozosin for 60 min. at 25° C. Non-specific binding was estimated in the presence of 10 μM phentolamine. Receptor proteins were filtered and washed, the filters were then counted to determine [^3H]Prozosin specifically bound. Compounds were screened at 1 μM or lower, using 1% DMSO as vehicle. Biochemical assay results are presented as the percent inhibition of specific binding in Table 5.

In the case of `Cc1ccc(C(O)Cn2c3c(c4cc(Cl)ccc42)CCN(C)CC3)cc1` (stereo not drawn) [Compound No. 26, 2-(9-chloro-2,3,4,5-tetrahydro-3-methylazepino[4,5-b]indol-6(1H)-yl)-1-p-tolylethanol], the results for the inhibition at 1 µM in assay [1], in assay [2] and in assay [3] were 104%, 93% and 94%, respectively.
Taken in the same sequence, the figures for `CN1CCc2c(n(CC(O)c3ccccc3)c3ccc(Cl)cc23)CC1` (stereo not drawn) [Compound No. 24, 2-(9-chloro-2,3,4,5-tetrahydro-3-methylazepino[4,5-b]indol-6(1H)-yl)-1-phenylethanol] were 99%, 95% and 85%.
The matching figures for `C/C(=C\n1c2c(c3cc(Cl)ccc31)CCN(C)CC2)c1ccc(Cl)cc1Cl` [Compound No. 239, (E)-9-chloro-6-(2-(2,4-dichlorophenyl)prop-1-enyl)-3-methyl-1,2,3,4,5,6-hexahydroazepino[4,5-b]indole]: 107%, 97% and 28%.
Taken in the same sequence, the figures for `CN1CCc2c(n(CC(O)c3ccc(F)cc3)c3ccc(Cl)cc23)CC1` (stereo not drawn) [Compound No. 51, 2-(9-chloro-2,3,4,5-tetrahydro-3-methylazepino[4,5-b]indol-6(1H)-yl)-1-(4-fluorophenyl) ethanol] were 103%, 98% and 85%.
`Cc1ccc2c(c1)c1c(n2CC(=O)N2CCOCC2)CCN(C)CC1` [Compound No. 38, 2-(2,3,4,5-tetrahydro-3,9-dimethylazepino[4,5-b]indol-6(1H)-yl)-1-morpholinoethanone]: the inhibition at 1 µM in assay [1] was 83%; in assay [2] it was 98%; in assay [3] it was 38%.
The matching figures for `Cc1ccc2c(c1)c1c(n2CC(O)c2ccc(F)cc2)CCN(C)CC1` (stereo not drawn) [Compound No. 52, 1-(4-fluorophenyl)-2-(2,3,4,5-tetrahydro-3,9-dimethylazepino[4,5-b]indol-6(1H)-yl)ethanol]: 103%, 96% and 91%.
The matching figures for `CN1CCc2c(n(CCc3ccccn3)c3ccc(Cl)cc23)CC1` [Compound No. 8, 9-chloro-1,2,3,4,5,6-hexahydro-3-methyl-6-(2-(pyridin-2-yl)ethyl)azepino[4,5-b]indole]: 103%, 95% and 91%.
The matching figures for `Cc1ccc2c(c1)c1c(n2CCc2cncc(Cl)c2)CCN(C)CC1` [Compound No. 4, 6-(2-(5-chloropyridin-3-yl)ethyl)-1,2,3,4,5,6-hexahydro-3,9-dimethylazepino[4,5-b]indole]: 93%, 89% and 76%.
`CN1CCc2c(n(CC(=O)N(C)C3CCCCC3)c3ccc(Cl)cc23)CC1` [Compound No. 74, 2-(9-chloro-2,3,4,5-tetrahydro-3-methylazepino[4,5-b]indol-6(1H)-yl)-N-cyclohexyl-N-methylacetamide]: the inhibition at 1 µM in assay [1] is 27%; in assay [2] it was 1%; in assay [3], 17%.
Taken in the same sequence, the figures for `CC(C)NC(=O)Cn1c2c(c3cc(Cl)ccc31)CCN(C)CC2` [Compound No. 31, 2-(9-chloro-2,3,4,5-tetrahydro-3-methylazepino[4,5-b]indol-6(1H)-yl)-N-isopropylacetamide] were 23%, 56% and 6%.
The matching figures for `CN1CCc2c(n(CC(O)c3ccc(F)c(F)c3)c3ccc(Cl)cc23)CC1` (stereo not drawn) [Compound No. 58, 2-(9-chloro-2,3,4,5-tetrahydro-3-methylazepino[4,5-b]indol-6(1H)-yl)-1-(3,4-difluorophenyl)ethanol]: 10%, 16% and 88%.
Taken in the same sequence, the figures for `Cc1ccc2c(c1)c1c(n2CCc2ccccc2Cl)CCN(C)CC1` [Compound No. 69, 6-(2-chlorophenethyl)-1,2,3,4,5,6-hexahydro-3,9-dimethylazepino[4,5-b]indole] were -4%, -1% and -5%.
As for `CN1CCc2c(n(CC(C)(O)c3ccc(F)cc3)c3ccc(Cl)cc23)CC1` (stereo not drawn) [Compound No. 13, 1-(9-chloro-2,3,4,5-tetrahydro-3-methylazepino[4,5-b]indol-6(1H)-yl)-2-(4-fluorophenyl)propan-2-ol], the inhibition at 1 µM was found to be 105% in assay [1], 89% in assay [2] and 76% in assay [3].
Taken in the same sequence, the figures for `C=C(Cn1c2c(c3cc(Cl)ccc31)CCN(C)CC2)c1ccc(Cl)cc1` [Compound No. 35, 9-chloro-6-(2-(4-chlorophenyl)allyl)-3-methyl-1,2,3,4,5,6-hexahydroazepino[4,5-b]indole] were 112%, 91% and 96%.
For the compound `CN1CCc2c(n(CC(=O)N3CCCC3)c3ccc(Cl)cc23)CC1` [Compound No. 53, 2-(9-chloro-2,3,4,5-tetrahydro-3-methylazepino[4,5-b]indol-6(1H)-yl)-1-(pyrrolidin-1-yl)ethanone], the inhibition at 1 µM was 3% in assay [1], 32% in assay [2] and 13% in assay [3].
As for `CN1CCc2c(n(CCc3ccccc3F)c3ccccc23)CC1` [Compound No. 237, 6-(2-fluorophenethyl)-3-methyl-1,2,3,4,5,6-hexahydroazepino[4,5-b]indole], the inhibition at 1 µM in assay [1] was 93%; in assay [2] it was 100%; in assay [3] it was 70%.
The matching figures for `Cc1ccc2c(c1)c1c(n2CC(=O)N2CCCC2)CCN(C)CC1` [Compound No. 45, 2-(2,3,4,5-tetrahydro-3,9-dimethylazepino[4,5-b]indol-6(1H)-yl)-1-(pyrrolidin-1-yl)ethanone]: 9%, 16% and 1%.
